Measurements published in PMC12396409, “Screening and hit evaluation of a microbial metabolite library against the pathogenic Plasmodium falciparum and Toxoplasma gondii parasites” (International Journal for Parasitology: Drugs and Drug …, 2025).
Like-named read-outs stand apart in the source and are kept apart here. *1 amine or outer side, *2 acyl side, *3 side chain or, on linkers, in order; H or OH if unused. Where a SMILES comes first, the peptide text is derived from it. Bridges are numbered along the chain shown (N, C = ends). [ ]: non-standard residue; d: D form. The star is where a group is joined. pTerphenylCO(4''-OnC5H11) = CCCCCOc1ccc(-c2ccc(-c3ccc(C(=O)*)cc3)cc2)cc1; Orn(4R-OH,5R-OH) = O=C([C@H](C[C@@H](O)[C@@H](O)N[*:3])N[*:1])[*:2]; hTyr(3S-OH,4S-OH) = N[C@H](C(=O)O)[C@H](O)[C@@H](O)c1ccc(O)cc1; Pro(3S-OH,4S-Me) = C[C@H]1CN[C@H](C(=O)O)[C@H]1O; Hyp = O=C(O)[C@@H]1C[C@@H](O)CN1; aIle = CC[C@@H](C)[C@H](N)C(=O)O

Key:
[1] = system: P. falciparum 3D7 parasites; assay: P. falciparum growth inhibition assay, 1-cycle (72 h treatment), SYBR DNA staining (library screen at 2 μg/mL and dose-response); type: cell-based, Plasmodium falciparum; settings: for activity at 2 µg/mL: Plasmodium falciparum
[2] = system: P. falciparum 3D7 parasites; assay: P. falciparum growth inhibition assay, 2-cycle (120 h treatment), delayed-death screen and dose-response; type: cell-based, Plasmodium falciparum; settings: for activity at 2 µg/mL: Plasmodium falciparum
[3] = system: T. gondii RH strain (RH-Tub-eYFP) tachyzoites; assay: microbe, parasite or virus in culture; type: cell-based, Toxoplasma gondii
[4] = library screen at 2 μg/mL, 72 h, % growth, replicate 1
[5] = library screen at 2 μg/mL, 72 h, % growth, replicate 2
[6] = library screen at 2 μg/mL, 120 h, % growth, replicate 1
[7] = library screen at 2 μg/mL, 120 h, % growth, replicate 2
[8] = P. falciparum 3D7, 72 h, library screen at 2 μg/mL, % growth, replicate 1
[9] = P. falciparum 3D7, 72 h, library screen at 2 μg/mL, % growth, replicate 2
[10] = P. falciparum 3D7, 120 h, library screen at 2 μg/mL, % growth, replicate 1
[11] = P. falciparum 3D7, 120 h, library screen at 2 μg/mL, % growth, replicate 2
[12] = T. gondii RH, 72 h, library screen at 2 μg/mL, % growth, replicate 1
[13] = T. gondii RH, 72 h, library screen at 2 μg/mL, % growth, replicate 2
[14] = 3D7, library screen at 2 μg/mL, 72 h, % growth, replicate 1, read-out: Pf_72h_%Growth_Rep1
[15] = 3D7, library screen at 2 μg/mL, 72 h, % growth, replicate 2, read-out: Pf_72h_%Growth_Rep2
[16] = 3D7, library screen at 2 μg/mL, 120 h, % growth, replicate 1, read-out: Pf_120h_%Growth_Rep1
[17] = 3D7, library screen at 2 μg/mL, 120 h, % growth, replicate 2, read-out: Pf_120h_%Growth_Rep2

CC(=O)NCCc1c[nH]c2ccc(O)cc12 [Acetylserotonin, N-]
Pf_72h_%Growth_Rep1 [1, 4]: 83.62%
Pf_72h_%Growth_Rep2 [1, 5]: 79.72%
Pf_120h_%Growth_Rep1 [2, 6]: 81.51%
Pf_120h_%Growth_Rep2 [2, 7]: 80.80%
Tg_72h_%Growth_Rep1 [3, 4]: 128.90%
Tg_72h_%Growth_Rep2 [3, 5]: 97.07%

Chaetomin
Pf_72h_%Growth_Rep1 ([1]; P. falciparum, 72 h, screen at 2 μg/mL, replicate 1): 58.72%
Pf_72h_%Growth_Rep2 ([1]; P. falciparum, 72 h, screen at 2 μg/mL, replicate 2): 55.68%
Pf_120h_%Growth_Rep1 ([2]; P. falciparum, 120 h, screen at 2 μg/mL, replicate 1): 45.75%
Pf_120h_%Growth_Rep2 ([2]; P. falciparum, 120 h, screen at 2 μg/mL, replicate 2): 45.66%
Tg_72h_%Growth_Rep1 ([3]; T. gondii, 72 h, screen at 2 μg/mL, replicate 1): 114.47%
Tg_72h_%Growth_Rep2 ([3]; T. gondii, 72 h, screen at 2 μg/mL, replicate 2): 90.87%

CC(C=CC1OC(=O)C=CC1C)=CC(C)CC=CC(C)=CC(C)C(=O)C(C)C(O)C(C)CC(C)=CC(=O)O (stereo not drawn) [BIA-L1045]
Pf_72h_%Growth_Rep1 [1, 8]: 49.36%
Pf_72h_%Growth_Rep2 [1, 9]: 24.76%
Pf_120h_%Growth_Rep1 [2, 10]: 60.90%
Pf_120h_%Growth_Rep2 [2, 11]: 15.41%
Tg_72h_%Growth_Rep1 [3, 12]: -0.52%
Tg_72h_%Growth_Rep2 [3, 13]: -0.11%

C[C@H]1CCC/C=C/[C@@H]2C[C@H](O)C[C@H]2[C@H](O)/C=C/C(=O)O1 [Brefeldin A]
activity at 2 µg/mL ([1]; 3D7, 72 h, P. falciparum, 72 h, screen at 2 μg/mL, replicate 1, read-out: Pf_72h_%Growth_Rep1): 4.33%
activity at 2 µg/mL ([1]; 3D7, 72 h, P. falciparum, 72 h, screen at 2 μg/mL, replicate 2, read-out: Pf_72h_%Growth_Rep2): -0.69%
activity at 2 µg/mL ([2]; 3D7, 120 h, P. falciparum, 120 h, screen at 2 μg/mL, replicate 1, read-out: Pf_120h_%Growth_Rep1): 5.53%
activity at 2 µg/mL ([2]; 3D7, 120 h, P. falciparum, 120 h, screen at 2 μg/mL, replicate 2, read-out: Pf_120h_%Growth_Rep2): 2.87%
percent parasite growth at 2 µg/mL ([3]; Toxoplasma gondii, 72 h, T. gondii, 72 h, screen at 2 μg/mL, replicate 1; read-out: Tg_72h_%Growth_Rep1): -1.55%
percent parasite growth at 2 µg/mL ([3]; Toxoplasma gondii, 72 h, T. gondii, 72 h, screen at 2 μg/mL, replicate 2; read-out: Tg_72h_%Growth_Rep2): 0.61%

Cc1cc(O)c(C=O)c2c1C(=O)Oc1c(CO)c(O)c3c(c1O2)C(O)OC3=O (stereo not drawn) [Salazinic acid]
Pf_72h_%Growth_Rep1 ([1]; P. falciparum, 72 h, parasite screen 2 μg/mL, % growth, replicate 1): 86.18%
Pf_72h_%Growth_Rep2 ([1]; P. falciparum, 72 h, parasite screen 2 μg/mL, % growth, replicate 2): 54.69%
Pf_120h_%Growth_Rep1 ([2]; P. falciparum, 120 h, parasite screen 2 μg/mL, % growth, replicate 1): 77.56%
Pf_120h_%Growth_Rep2 ([2]; P. falciparum, 120 h, parasite screen 2 μg/mL, % growth, replicate 2): 74.04%
Tg_72h_%Growth_Rep1 ([3]; T. gondii, 72 h, parasite screen 2 μg/mL, % growth, replicate 1): 117.03%
Tg_72h_%Growth_Rep2 ([3]; T. gondii, 72 h, parasite screen 2 μg/mL, % growth, replicate 2): 97.23%

CC[C@@H](C)[C@@H]1NC(=O)[C@@H](CC(C)C)NC(=O)[C@H](CC(C)C)NC(=O)[C@H](Cc2c[nH]c3ccccc23)NC(=O)CNC(=O)[C@H](CC(N)=O)NC1=O [Desotamide] (cyclo(GWL[dL][aIle]N))
activity at 2 µg/mL [1, 14]: 67.3%
activity at 2 µg/mL [1, 15]: 64.4%
activity at 2 µg/mL [2, 16]: 36%
activity at 2 µg/mL [2, 17]: 50.7%
percent parasite growth at 2 µg/mL ([3]; Toxoplasma gondii, 72 h, library screen at 2 μg/mL, 72 h, % growth, replicate 1; read-out: Tg_72h_%Growth_Rep1): 120%
percent parasite growth at 2 µg/mL ([3]; Toxoplasma gondii, 72 h, library screen at 2 μg/mL, 72 h, % growth, replicate 2; read-out: Tg_72h_%Growth_Rep2): 93%

CCCCCC(O)C1C(=O)OC(C)C(O)C=CC=CC=CC=CC=C(C)C(O)C(O)C(O)CC(O)CC(O)CC(O)CC(O)CC1O (stereo not drawn) [BIA-L1613]
Pf_72h_%Growth_Rep1 [1, 8]: 78.48%
Pf_72h_%Growth_Rep2 [1, 9]: 58.30%
Pf_120h_%Growth_Rep1 [2, 10]: 95.83%
Pf_120h_%Growth_Rep2 [2, 11]: 112.04%
Tg_72h_%Growth_Rep1 [3, 12]: 108.01%
Tg_72h_%Growth_Rep2 [3, 13]: 85.53%

CCCCCOc1ccc(-c2ccc(-c3ccc(C(=O)N[C@H]4C[C@@H](O)[C@@H](O)NC(=O)[C@@H]5[C@@H](O)[C@@H](C)CN5C(=O)[C@H]([C@@H](C)O)NC(=O)[C@H]([C@H](O)[C@@H](O)c5ccc(O)cc5)NC(=O)[C@@H]5C[C@@H](O)CN5C(=O)[C@H]([C@@H](C)O)NC4=O)cc3)cc2)cc1 [Anidulafungin] ({pTerphenylCO(4''-OnC5H11)}-[Orn(4R-OH,5R-OH)]T[Hyp][hTyr(3S-OH,4S-OH)]T[Pro(3S-OH,4S-Me)]; lactam 1-C)
activity at 2 µg/mL [1, 14]: 93.1%
activity at 2 µg/mL [1, 15]: 85.8%
activity at 2 µg/mL [2, 16]: 162%
activity at 2 µg/mL [2, 17]: 103%
percent parasite growth at 2 µg/mL ([3]; Toxoplasma gondii; library screen at 2 μg/mL, 72 h, % growth, replicate 1; read-out: Tg_72h_%Growth_Rep1): 88.8%
percent parasite growth at 2 µg/mL ([3]; Toxoplasma gondii; library screen at 2 μg/mL, 72 h, % growth, replicate 2; read-out: Tg_72h_%Growth_Rep2): 95.8%

CC[C@H]1OC(=O)[C@H](C)[C@@H](O[C@H]2C[C@@](C)(OC)[C@@H](O)[C@H](C)O2)[C@H](C)[C@@H](O[C@@H]2O[C@H](C)C[C@H](N(C)C)[C@H]2O)[C@](C)(O)C[C@@H](C)C(=O)[C@H](C)[C@@H](O)[C@]1(C)O [Erythromycin A]
Pf_72h_%Growth_Rep1 [1, 4]: 79.99%
Pf_72h_%Growth_Rep2 [1, 5]: 105.49%
Pf_120h_%Growth_Rep1 [2, 6]: 83.81%
Pf_120h_%Growth_Rep2 [2, 7]: 89.66%
Tg_72h_%Growth_Rep1 [3, 4]: 29.44%
Tg_72h_%Growth_Rep2 [3, 5]: 44.08%
